Values joined by “and” are separate entries in the source; they are usually repeats but may differ in a detail not shown here. Equal values may be shown once.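 Growth conditions: 96-well plates. Treatment: test compound, 48 hours, 5 concentrations. Analysis: linear interpolation between bracketing concentrations; unreached endpoints set to highest concentration. Abbreviation: GI50, concentration required for 50% inhibition of growth. The concentration for full growth arrest is given as TGI.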
Experiments:
Test in all cases: growth of human tumour cells (NCI), 48 h
[1] = test system: SF-268 CNS
[2] = test system: SK-MEL-28 melanoma
[3] = test system: MALME-3M melanoma
[4] = test system: MDA-N
[5] = test system: T-47D breast
[6] = test system: HCT-15 colon
[7] = test system: MDA-MB-435
[8] = test system: NCI-H226 lung
[9] = test system: DU-145 prostate
[10] = test system: OVCAR-8 ovarian

SMILES | TGI [1] | TGI [2] [µM] | TGI [3] [µM] | TGI [4] [µM] | TGI [5] [µM] | TGI [6] [µM] | TGI [7] [µM] | TGI [8] [µM] | TGI [9] [µM] | TGI [10] [µM] | GI50 [1] [µM] | GI50 [7] [µM] | GI50 [9] [µM] | GI50 [2] [µM] | GI50 [3] [µM] | GI50 [6] [µM] | GI50 [10] [µM]
COS(=O)c1cc(Cl)cc(Cl)c1O (centres undefined) | > 100 µM | > 100 | > 100 | – | – | – | – | – | – | – | – | – | – | – | – | – | –
O=C1OS2(OCc3cccc4cccc2c34)c2ccccc21 (centres undefined) | > 100 µM | > 100 | > 100 | > 100 | > 100 | > 100 | > 100 | > 100 | > 100 | – | – | – | – | – | – | – | –
CSC1SCC2C(=O)N(C)C3(CC3C)C(=O)OCC(NC(=O)c3nc4ccccc4cc3O)C(=O)NC(C)C(=O)N(C)C1C(=O)N(C)C1(CC1C)C(=O)OCC(NC(=O)c1nc3ccccc3cc1O)C(=O)NC(C)C(=O)N2C (centres undefined) | 0.00684 µM and 0.0159 µM | < 0.0001 | – | – | > 100 | – | < 0.0001 | < 0.0001 | > 100 | – | – | – | – | – | – | – | –
COc1ccc(-c2c(C#N)c(-c3ccccc3)n(NS(=O)(=O)c3ccccc3)c(=O)c2C#N)cc1 | > 100 µM | > 100 | > 100 | > 100 | – | > 100 | > 100 | > 100 | – | > 100 | – | – | – | – | – | – | –
O=C(O)c1ccccc1/C=N\NC1=NCCCCN1 | > 100 µM | – | > 100 | > 100 | > 100 | > 100 | > 100 | > 100 | > 100 | > 100 | – | – | – | – | – | – | –
CCOP(=O)(OCC)C(Nc1ccc(F)cc1)c1cccc([N+](=O)[O-])c1 (centres undefined) | > 100 µM | > 100 | > 100 | > 100 | – | > 100 | > 100 | > 100 | > 100 | > 100 | – | – | – | – | – | – | –
CC1=CC[C@@H]2CC[C@]3(C)[C@H](CC[C@@H]4[C@@]5(C)CCCNC(C)(C)[C@@H]5CC[C@]43C)[C@H]2[C@@H]1C | 3.71 µM | 3.32 | 3.48 | – | – | – | 3.28 | – | 3.55 | – | 1.97 | 1.85 | 1.98 | 1.81 | 1.77 | – | –
COC(=O)C(COC(=O)/C=C/c1ccc(OC(C)=O)c(OC(C)=O)c1)OC(=O)/C=C/c1ccc(OC(C)=O)c(OC(C)=O)c1 (centres undefined) | 64.2 µM | 30.9 | 45.6 | 21.7 | – | > 100 | 23.9 | 90.5 | 24.7 | 26.4 | – | – | – | – | – | – | –
CSc1ncc2c(n1)-c1ccccc1OC2N1CCCC1 (centres undefined) | > 100 µM | – | – | > 100 | > 100 | > 100 | > 100 | > 100 | > 100 | > 100 | – | – | – | – | – | – | –
CCOC(=O)c1cn(-c2ccc(Cl)cc2)c(=O)n2c1nc1ccccc12 | – | > 100 | – | – | > 100 | > 100 | > 100 | > 100 | > 100 | > 100 | – | – | – | – | – | – | –
COC(=O)[C@@H]1N2C(=S)N(c3ccccc3)C(=O)[C@H]2SC1(C)C | > 100 µM | > 100 | – | > 100 | > 100 | > 100 | > 100 | > 100 | > 100 | > 100 | – | – | – | – | – | – | –
O=c1cc(-c2ccccc2)[nH]c2cccc(S)c12 | > 100 µM | > 100 | > 100 | – | > 100 | > 100 | – | 98.7 | > 100 | 2.37 | – | – | – | – | – | – | –
COc1c/c(=C2/C=c3ccccc3=N2)[nH]/c1=C/c1[nH]c(C)cc1C | > 100 µM | – | 1.62 | – | – | > 100 | – | – | > 100 | > 100 | 0.0309 | – | 0.15 | – | 0.277 | 0.0363 | 0.0448
CCOC(=O)C(C(=O)Cc1ccccc1)c1ccccc1 (centres undefined) | > 100 µM | > 100 | > 100 | – | – | > 100 | – | > 100 | – | > 100 | – | – | – | – | – | – | –
OCCN=C1Nc2ccc(Cl)cc2C(=S)N2CSC[C@@H]12 | > 100 µM | > 100 | > 100 | – | > 100 | > 100 | > 100 | – | > 100 | > 100 | – | – | – | – | – | – | –
C=C1C[C@]23C[C@@]1(O)CC[C@H]2[C@@]12C=C[C@H](O)[C@@](C)(C(=O)O1)[C@H]2[C@@H]3C(=O)O | > 100 µM | > 100 | > 100 | – | – | > 100 | – | > 100 | – | – | – | – | – | – | – | – | –
CSc1nncc(-c2cc3c(c(SC)n2)CCC3)n1 | > 100 µM | > 100 | – | – | – | > 100 | > 100 | > 100 | > 100 | 57.1 | – | – | – | – | – | – | –
COc1ccc(CNc2nc(NCc3ccc(OC)cc3)nc(N3CCOCC3)n2)cc1 | – | > 100 | 5.84 | – | > 100 | 6.21 | 4.66 | > 100 | > 100 | > 100 | – | – | – | – | – | – | –

Reference: PubChem BioAssay (NCI)
